The values that follow come from paper PMC6155239, “Targeting PFKFB3 radiosensitizes cancer cells and suppresses homologous recombination” (Nature Communications, 2018).

One data set has as its target T1, EGFR(L858R) (Homo sapiens, UniProt P00533, L858R).
T1 construct: purchased DiscoverX (Eurofins) KINOMEscan / scanEDGE, inferred from the naming style
The data set is described as follows: KINOMEscan. It counts as binding. Particulars: 2000 nM; read-out: Percent Control.

For a further data set, the target named is T2, BRAF (Homo sapiens, UniProt P15056).
T2 construct: purchased DiscoverX (Eurofins) KINOMEscan / scanEDGE, inferred from the naming style
T2 sequence (P15056 whole entry): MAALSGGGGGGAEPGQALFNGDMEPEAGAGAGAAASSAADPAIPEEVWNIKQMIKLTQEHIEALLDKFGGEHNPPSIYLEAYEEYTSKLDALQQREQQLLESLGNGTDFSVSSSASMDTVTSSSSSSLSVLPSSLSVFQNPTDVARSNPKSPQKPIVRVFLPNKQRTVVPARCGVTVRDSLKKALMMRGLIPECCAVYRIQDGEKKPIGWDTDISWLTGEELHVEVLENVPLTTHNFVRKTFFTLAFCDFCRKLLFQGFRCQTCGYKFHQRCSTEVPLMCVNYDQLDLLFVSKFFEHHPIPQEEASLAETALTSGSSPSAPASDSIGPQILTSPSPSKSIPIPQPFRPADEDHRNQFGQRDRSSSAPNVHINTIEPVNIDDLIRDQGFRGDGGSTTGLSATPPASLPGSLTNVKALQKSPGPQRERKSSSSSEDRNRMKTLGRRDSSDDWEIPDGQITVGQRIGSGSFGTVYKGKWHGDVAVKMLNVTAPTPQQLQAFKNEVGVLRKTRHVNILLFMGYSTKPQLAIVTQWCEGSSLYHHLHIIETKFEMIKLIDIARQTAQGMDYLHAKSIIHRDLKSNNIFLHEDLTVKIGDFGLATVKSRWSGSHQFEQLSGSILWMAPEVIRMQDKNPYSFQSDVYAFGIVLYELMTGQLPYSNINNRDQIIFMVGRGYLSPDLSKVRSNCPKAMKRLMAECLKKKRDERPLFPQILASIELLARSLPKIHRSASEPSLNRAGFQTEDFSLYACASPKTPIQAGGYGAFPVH
The data set is described as follows: KINOMEscan. The data set is classed as binding. The settings on record: 2000 nM; read-out: Percent Control.

The next data set concerns the target T3, BMPR2 (Homo sapiens, UniProt Q13873).
T3 construct: purchased DiscoverX (Eurofins) KINOMEscan / scanEDGE, inferred from the naming style
The data set is described as follows: KINOMEscan. The data set is classed as binding. Particulars: 2000 nM; read-out: Percent Control.

Data set [1] has as its target T4, ABL1(E255K)-phosphorylated (Homo sapiens, UniProt P00519, E255K).
T4 construct: purchased DiscoverX (Eurofins) KINOMEscan / scanEDGE, inferred from the naming style
As to the kind of experiment: KINOMEscan. Particulars: 2000 nM; read-out: Percent Control. The data set is classed as binding.

The target in another data set is T5, CDK9 (Homo sapiens, UniProt P50750).
T5 construct: purchased DiscoverX (Eurofins) KINOMEscan / scanEDGE, inferred from the naming style
T5 sequence (P50750 whole entry): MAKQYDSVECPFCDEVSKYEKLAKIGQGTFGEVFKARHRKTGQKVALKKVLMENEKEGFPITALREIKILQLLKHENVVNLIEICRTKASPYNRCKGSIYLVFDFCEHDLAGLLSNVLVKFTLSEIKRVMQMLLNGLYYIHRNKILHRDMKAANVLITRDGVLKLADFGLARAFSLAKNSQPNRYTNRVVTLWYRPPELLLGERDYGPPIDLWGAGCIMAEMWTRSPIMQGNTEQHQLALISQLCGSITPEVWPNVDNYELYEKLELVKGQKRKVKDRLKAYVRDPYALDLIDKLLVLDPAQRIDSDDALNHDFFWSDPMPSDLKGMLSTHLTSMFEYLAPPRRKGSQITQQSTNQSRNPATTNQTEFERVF
As to the kind of experiment: KINOMEscan. It counts as binding. Particulars: 2000 nM; read-out: Percent Control.

For another data set, the target named is T6, AKT2 (Homo sapiens, UniProt P31751).
T6 construct: purchased DiscoverX (Eurofins) KINOMEscan / scanEDGE, inferred from the naming style
T6 sequence (P31751 whole entry): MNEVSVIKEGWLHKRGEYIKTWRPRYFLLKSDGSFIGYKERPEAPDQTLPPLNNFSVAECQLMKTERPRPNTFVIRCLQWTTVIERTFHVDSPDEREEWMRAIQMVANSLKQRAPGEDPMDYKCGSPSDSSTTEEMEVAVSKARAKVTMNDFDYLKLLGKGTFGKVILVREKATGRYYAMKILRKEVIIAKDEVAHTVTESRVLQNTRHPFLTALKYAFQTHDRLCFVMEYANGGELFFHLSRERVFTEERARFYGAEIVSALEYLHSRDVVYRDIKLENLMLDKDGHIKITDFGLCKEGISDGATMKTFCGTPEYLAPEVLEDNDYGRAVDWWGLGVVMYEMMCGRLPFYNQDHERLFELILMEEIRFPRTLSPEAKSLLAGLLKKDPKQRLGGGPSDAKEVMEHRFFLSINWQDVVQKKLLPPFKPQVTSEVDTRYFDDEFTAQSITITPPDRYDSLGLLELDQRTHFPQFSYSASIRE
The data set is described as follows: KINOMEscan. It counts as binding. The settings on record: 2000 nM; read-out: Percent Control.

In a further data set the target is T7, AURKB (Homo sapiens, UniProt Q96GD4).
T7 construct: purchased DiscoverX (Eurofins) KINOMEscan / scanEDGE, inferred from the naming style
As to the kind of experiment: KINOMEscan. The settings on record: 2000 nM; read-out: Percent Control. The data set is classed as binding.

The next data set concerns the target T8, FGFR2 (Homo sapiens, UniProt P21802).
T8 construct: purchased DiscoverX (Eurofins) KINOMEscan / scanEDGE, inferred from the naming style
As to the kind of experiment: KINOMEscan. The data set is classed as binding. The settings on record: 2000 nM; read-out: Percent Control.

Data set [2] has as its target T9, ABL1(T315I)-phosphorylated (Homo sapiens, UniProt P00519, T315I).
T9 construct: purchased DiscoverX (Eurofins) KINOMEscan / scanEDGE, inferred from the naming style
The data set is described as follows: KINOMEscan. The data set is classed as binding. The settings on record: 2000 nM; read-out: Percent Control.

The next data set has as its target T10, CSNK1D (Homo sapiens, UniProt P48730).
T10 construct: purchased DiscoverX (Eurofins) KINOMEscan / scanEDGE, inferred from the naming style
As to the kind of experiment: KINOMEscan. It counts as binding. The settings on record: 2000 nM; read-out: Percent Control.

The target of the next data set is T11, FLT3 (Homo sapiens, UniProt P36888).
T11 construct: purchased DiscoverX (Eurofins) KINOMEscan / scanEDGE, inferred from the naming style
As to the kind of experiment: KINOMEscan. The settings on record: 2000 nM; read-out: Percent Control. The data set is classed as binding.

The target in the next data set is T12, ACVR1B (Homo sapiens, UniProt P36896).
T12 construct: purchased DiscoverX (Eurofins) KINOMEscan / scanEDGE, inferred from the naming style
The data set is described as follows: KINOMEscan. The settings on record: 2000 nM; read-out: Percent Control. The data set is classed as binding.

In a further data set the target is T13, FGFR3 (Homo sapiens, UniProt P22607).
T13 construct: purchased DiscoverX (Eurofins) KINOMEscan / scanEDGE, inferred from the naming style
T13 sequence (P22607 23-806): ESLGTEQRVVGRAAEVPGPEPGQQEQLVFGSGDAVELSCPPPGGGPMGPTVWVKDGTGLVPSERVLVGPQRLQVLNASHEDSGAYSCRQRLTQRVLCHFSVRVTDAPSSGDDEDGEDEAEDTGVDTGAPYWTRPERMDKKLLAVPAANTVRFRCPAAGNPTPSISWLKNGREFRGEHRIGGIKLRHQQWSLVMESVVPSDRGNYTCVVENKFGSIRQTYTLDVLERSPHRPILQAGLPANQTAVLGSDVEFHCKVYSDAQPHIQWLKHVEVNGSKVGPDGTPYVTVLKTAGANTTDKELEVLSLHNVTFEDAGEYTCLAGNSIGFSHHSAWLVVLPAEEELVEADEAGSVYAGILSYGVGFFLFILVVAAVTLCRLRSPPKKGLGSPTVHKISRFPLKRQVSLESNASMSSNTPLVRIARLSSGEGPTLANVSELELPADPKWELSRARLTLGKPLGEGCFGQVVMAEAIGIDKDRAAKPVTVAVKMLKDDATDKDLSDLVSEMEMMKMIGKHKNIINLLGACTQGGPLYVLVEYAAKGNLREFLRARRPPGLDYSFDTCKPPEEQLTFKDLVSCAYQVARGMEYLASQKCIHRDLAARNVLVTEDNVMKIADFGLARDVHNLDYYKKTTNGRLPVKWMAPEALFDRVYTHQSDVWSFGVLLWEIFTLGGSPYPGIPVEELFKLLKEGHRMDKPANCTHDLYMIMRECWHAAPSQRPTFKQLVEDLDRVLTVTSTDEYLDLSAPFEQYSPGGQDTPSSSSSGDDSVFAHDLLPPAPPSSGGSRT
As to the kind of experiment: KINOMEscan. It counts as binding. The settings on record: 2000 nM; read-out: Percent Control.

The target of the next data set is T14, CDK3 (Homo sapiens, UniProt Q00526).
T14 construct: purchased DiscoverX (Eurofins) KINOMEscan / scanEDGE, inferred from the naming style
T14 sequence (Q00526 whole entry): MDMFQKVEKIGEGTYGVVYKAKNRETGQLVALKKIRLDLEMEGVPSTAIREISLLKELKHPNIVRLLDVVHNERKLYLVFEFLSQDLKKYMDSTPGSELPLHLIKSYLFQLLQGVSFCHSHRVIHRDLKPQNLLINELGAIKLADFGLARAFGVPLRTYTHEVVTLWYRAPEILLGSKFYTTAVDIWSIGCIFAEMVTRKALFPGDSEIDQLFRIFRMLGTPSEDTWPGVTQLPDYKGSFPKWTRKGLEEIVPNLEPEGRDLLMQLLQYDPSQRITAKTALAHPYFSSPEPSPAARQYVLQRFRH
The data set is described as follows: KINOMEscan. The data set is classed as binding. Particulars: 2000 nM; read-out: Percent Control.

Another data set relates to U2OS DR-GFP cells. As to the kind of experiment: DR-GFP (HR) assay. It counts as cell-based. Particulars: DMSO = 100% activity. The method, then: 5 × 10^4 U2OS (DR-GFP) cells were seeded into 12-well plates, 24 h later cells were treated with the indicated siRNAs or inhibitors and, 24 h later, transfected with 150 ng of an I-SceI vector using JetPEI or JetPRIME (Polyplus transfections). The next day, the medium was changed; 24 h after this, cells were harvested by trypsinization and washed with PBS, and the GFP signal was measured by flow cytometry on a FACS Navios (as described above). The frequency of repair in cells treated with inhibitors or transfected with the various siRNAs was calculated relative to cells treated with DMSO or transfected with control siRNA.

Data set [3] concerns U2OS cells. The data set is described as follows: Clonogenic survival, U2OS. It counts as cell-based. The settings on record: U2OS pre-treated prior to IR, colonies 10 days post treatments. The method, then:
(§1) U2OS cells were transfected with indicated siRNAs and 24 h later exposed to IR (2 Gy) or left untreated and allowed to recover for 4 h. One-hundred U2OS cells were then seeded into 6-well plates and after 10 days colonies were fixed and stained with 4% methylene blue (Sigma Aldrich) in methanol. BJ TERT (500 cells), BJ RAS (200 cells), or U2OS (200 cells) were seeded into 6-well plates 24 h prior to treatment with inhibitors as indicated or vehicle for 24 h and then subjected to IR (2 Gy). The inhibitors were washed out 72 h later and colonies were fixed 4 days (BJ RAS) or 7 days (BJ TERT) later with 4% methylene blue in methanol.

Another data set concerns BJ TERT cells. The data set is described as follows: Clonogenic survival, BJ TERT. The data set is classed as cell-based. The settings on record: with and without IR (2 Gy), concentrations active in BJ RAS. Here is the method: as §1
Data set [4] relates to U2OS cells. The data set is described as follows: DNA fiber assay. The data set is classed as cell-based. The settings on record: 10 μM. The method, then: 1 × 10^5 cells were seeded into 6-well plates, 24 h later cells were treated with the indicated inhibitors or nucleosides, and 24 h later DNA was labeled with 25 μM CldU (Sigma, C6891) in pre-warmed DMEM for 20 min, washed and then labeled with 250 μM IdU (Sigma I7125) in pre-warmed DMEM for 20 min, before harvesting by scraping in cold PBS. Harvested cells were diluted to 1 × 10^6 cells/mL, spreading and staining was performed as described previously described. Fluorescence images were captured using a Zeiss LSM 780 inverted confocal microscope using a 63 × 1.4 oil immersion objective, excitation wavelengths of 488 and 555 nm, and analyzed using the ImageJ software. At least 300 unidirectional forks labeled with both CldU and IdU were measured for every condition.

In data set [5] the test system is cell lines representing pancreatic, gastric, and colon cancer. As to the kind of experiment: Cell viability of cancer cell lines. Particulars: prolonged incubation (72 h). It counts as cell-based. The method, then:
Cell proliferation was assayed by quantifying total cellular protein levels after indicated treatments and incubation times using the Sulphorhodamine B kit, TOX6 (Sigma-Aldrich). MIA PaCa-2, PANC1, SW620, and SW480 cells were plated at a density of 6 × 10^3 cells/well in 96-well plates (CLS3596, Sigma-Aldrich) and allowed to attach overnight. The following day, compounds were diluted in dose–response curve mode, required volume was transferred to assay medium to a maximal DMSO concentration of 0.1%. The diluted compounds were added to the cells with a starting dose–response concentration of 100 µM, all compounds were tested in duplicate plates. After 72 h of incubation with compounds, total protein per well was precipitated using TCA according to the manufacturer's instructions; the sulphorhodamine dye was added to the air-dried wells. After 20 min incubation at room temperature, the dye was discarded and the samples were gently rinsed with 1% HOAc until clear. After air drying, bound dye was solubilized in 10 mM Tris base, and the absorbance of dye was measured at 565 nm. To quantify growth, samples were collected also at t = 0 h, and the resulting absorbance was set to 100%.

T8 sequence (P21802 22-821): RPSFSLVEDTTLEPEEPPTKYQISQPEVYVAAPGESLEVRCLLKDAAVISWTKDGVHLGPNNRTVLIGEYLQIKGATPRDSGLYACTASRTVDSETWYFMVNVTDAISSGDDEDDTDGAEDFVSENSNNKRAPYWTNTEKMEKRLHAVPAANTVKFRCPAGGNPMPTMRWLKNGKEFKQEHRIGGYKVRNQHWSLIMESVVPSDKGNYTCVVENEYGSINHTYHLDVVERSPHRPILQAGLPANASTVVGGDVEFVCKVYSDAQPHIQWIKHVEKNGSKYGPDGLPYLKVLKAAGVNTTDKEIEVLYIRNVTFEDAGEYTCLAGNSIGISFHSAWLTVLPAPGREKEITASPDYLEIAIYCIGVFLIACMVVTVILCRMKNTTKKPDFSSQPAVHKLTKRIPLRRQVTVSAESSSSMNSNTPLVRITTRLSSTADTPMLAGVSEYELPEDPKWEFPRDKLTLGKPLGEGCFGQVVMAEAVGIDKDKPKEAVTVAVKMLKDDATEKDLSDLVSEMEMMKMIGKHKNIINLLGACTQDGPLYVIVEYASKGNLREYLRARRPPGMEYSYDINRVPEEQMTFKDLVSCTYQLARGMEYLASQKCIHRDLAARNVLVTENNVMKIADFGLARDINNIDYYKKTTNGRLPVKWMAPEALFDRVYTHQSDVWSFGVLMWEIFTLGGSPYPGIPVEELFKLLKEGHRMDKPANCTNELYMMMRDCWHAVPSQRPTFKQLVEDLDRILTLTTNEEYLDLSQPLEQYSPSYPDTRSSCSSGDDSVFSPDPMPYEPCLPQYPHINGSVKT
T3 sequence (Q13873 27-1038): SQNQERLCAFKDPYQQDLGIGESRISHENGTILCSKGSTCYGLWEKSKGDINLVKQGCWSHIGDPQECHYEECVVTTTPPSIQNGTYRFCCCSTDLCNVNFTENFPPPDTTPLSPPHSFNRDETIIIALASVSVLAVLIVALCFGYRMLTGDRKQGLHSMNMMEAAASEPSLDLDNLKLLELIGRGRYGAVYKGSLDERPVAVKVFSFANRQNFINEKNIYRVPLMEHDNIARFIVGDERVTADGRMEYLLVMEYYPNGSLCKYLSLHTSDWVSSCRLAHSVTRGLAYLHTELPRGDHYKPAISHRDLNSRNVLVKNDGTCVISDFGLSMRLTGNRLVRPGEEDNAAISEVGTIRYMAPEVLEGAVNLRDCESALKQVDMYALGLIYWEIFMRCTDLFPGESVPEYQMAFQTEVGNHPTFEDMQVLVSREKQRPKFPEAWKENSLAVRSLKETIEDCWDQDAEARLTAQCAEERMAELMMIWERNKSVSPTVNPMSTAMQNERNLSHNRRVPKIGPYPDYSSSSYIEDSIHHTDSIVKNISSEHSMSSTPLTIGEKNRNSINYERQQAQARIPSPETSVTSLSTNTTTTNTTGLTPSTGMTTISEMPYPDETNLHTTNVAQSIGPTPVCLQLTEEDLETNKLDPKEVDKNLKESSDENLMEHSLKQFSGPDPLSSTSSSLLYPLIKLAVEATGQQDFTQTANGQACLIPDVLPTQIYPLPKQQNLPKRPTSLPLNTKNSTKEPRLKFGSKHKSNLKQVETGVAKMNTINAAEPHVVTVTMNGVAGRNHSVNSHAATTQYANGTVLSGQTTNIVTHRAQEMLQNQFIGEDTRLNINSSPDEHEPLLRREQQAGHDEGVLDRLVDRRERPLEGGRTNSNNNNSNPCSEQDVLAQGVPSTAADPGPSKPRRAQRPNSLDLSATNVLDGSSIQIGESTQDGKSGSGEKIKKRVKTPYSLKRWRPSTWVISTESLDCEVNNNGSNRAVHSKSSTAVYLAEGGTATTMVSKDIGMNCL
T10 sequence (P48730 whole entry): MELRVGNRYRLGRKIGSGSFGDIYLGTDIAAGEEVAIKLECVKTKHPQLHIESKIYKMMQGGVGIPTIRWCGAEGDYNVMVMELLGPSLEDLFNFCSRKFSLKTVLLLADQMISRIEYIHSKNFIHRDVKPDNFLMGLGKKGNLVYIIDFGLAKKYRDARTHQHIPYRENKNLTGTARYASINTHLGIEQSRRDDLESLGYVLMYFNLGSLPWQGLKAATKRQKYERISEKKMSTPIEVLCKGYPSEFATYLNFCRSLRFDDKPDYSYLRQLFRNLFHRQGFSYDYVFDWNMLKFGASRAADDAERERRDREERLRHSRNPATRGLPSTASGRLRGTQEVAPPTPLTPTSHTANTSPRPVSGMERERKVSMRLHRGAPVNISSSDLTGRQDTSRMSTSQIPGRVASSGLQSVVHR

On to `O=C(O)c1ccc(NS(=O)(=O)c2cccc(-c3cc(F)ccc3O)c2)cc1O` [KAN0438241, 4-{[(5′-Fluoro-2′-hydroxybiphenyl-3-yl)sulfonyl]amino}-2-hydroxybenzoic acid], for which the remaining binding at 2 µM at EGFR(L858R) amounted to 90%; at BRAF, 100%; at BMPR2, 88%; in [1], 100%; at CDK9 it was 100%; at AKT2, 97%. The remaining binding at 2 µM turned out to be 92% on AURKB; 88% on FGFR2; 100% in [2]; 100% at CSNK1D; 94% at FLT3; 100% on ACVR1B. Also, the remaining binding at 2 µM at FGFR3 was determined as 95%; on CDK3, 97%.

In the case of `O=C(OCCO)c1ccc(NS(=O)(=O)c2cccc(-c3cc(F)ccc3O)c2)cc1O` [KAN0438757, 2-Hydroxyethyl-4-{[(5′-fluoro-2′-hydroxybiphenyl-3-yl)sulfonyl]amino}-2-hydroxybenzoate], the “HR activity as compared to vehicle-treated cells” value with U2OS DR-GFP cells was found to be 10%. The “clonogenic survival in combination with IR (in words)” value in the data set on U2OS cells [3] is given as “dose-dependent radiosensitization”. Besides, the “clonogenic survival of BJ TERT (in words)” value with BJ TERT cells was “only marginally affected”. The “incorporation of CldU and IdU / replication fork speed (in words)” value with U2OS cells [4] is on record as “severely decreased”. For the same molecule, the “effect on cell viability” value in [5] is reported as “significantly reduce cell viability”.
